According to ChEMBL document CHEMBL4190346, “Structure-based design, synthesis, and biological evaluation of withaferin A-analogues as potent apoptotic inducers” (Eur J Med Chem, 2017):

What was measured:
[1] = system: Vero; experiment: Cytotoxicity against African green monkey Vero cells assessed as reduction in cell viability using compound addition to cell culture cells in log phase of growth and incubated for 48 hrs by MTT assay; format: cell-based, Chlorocebus sabaeus; settings: Chlorocebus sabaeus, Vero, 48 h; read-out: IC50
[2] = system: MCF7; experiment: Cytotoxicity against human MCF7 cells assessed as reduction in cell viability using compound addition to cell culture cells in log phase of growth and incubated for 48 hrs by MTT assay; format: functional, cell-based; settings: Homo sapiens, MCF7, 48 h; read-out: IC50
[3] = system: A549; experiment: Cytotoxicity against human A549 cells assessed as reduction in cell viability using compound addition to cell culture cells in lag phase of growth and incubated for 48 hrs by MTT assay; format: functional, cell-based; settings: Homo sapiens, A549, 48 h; read-out: IC50
[4] = system: MCF7; experiment: Cytotoxicity against human MCF7 cells assessed as reduction in cell viability using compound addition to cell culture cells in lag phase of growth and incubated for 48 hrs by MTT assay; format: functional, cell-based; settings: Homo sapiens, MCF7, 48 h; read-out: IC50
[5] = system: Vero; experiment: Cytotoxicity against African green monkey Vero cells assessed as reduction in cell viability using compound addition to cell culture cells in lag phase of growth and incubated for 48 hrs by MTT assay; format: cell-based, Chlorocebus sabaeus; settings: Chlorocebus sabaeus, Vero, 48 h; read-out: IC50
[6] = system: A549; experiment: Cytotoxicity against human A549 cells assessed as reduction in cell viability using compound addition to cell culture cells in log phase of growth and incubated for 48 hrs by MTT assay; format: functional, cell-based; settings: Homo sapiens, A549, 48 h; read-out: IC50
[7] = system: HeLa; experiment: Cytotoxicity against human HeLa cells assessed as reduction in cell viability using compound addition to cell culture cells in log phase of growth and incubated for 48 hrs by MTT assay; format: functional, cell-based; settings: Homo sapiens, HeLa, 48 h; read-out: IC50
[8] = system: HeLa; experiment: Cytotoxicity against human HeLa cells assessed as reduction in cell viability using compound addition to cell culture cells in lag phase of growth and incubated for 48 hrs by MTT assay; format: functional, cell-based; settings: Homo sapiens, HeLa, 48 h; read-out: IC50

SMILES: CC1=C(CO)C(=O)O[C@@H]([C@@H](C)[C@H]2CC[C@H]3[C@@H]4C[C@@H](O)[C@]56ON[C@H](CC(=O)[C@]5(C)[C@H]4CC[C@]23C)[C@@H]6O)C1
- IC50 [1]: > 40 µM
- IC50 [2]: > 40 µM
- IC50 [3]: > 40 µM
- IC50 [4]: > 40 µM
- IC50 [5]: > 40 µM
- IC50 [6]: > 40 µM
- IC50 [7]: > 40 µM
- IC50 [8]: > 40 µM

SMILES: COC(=O)CCC(=O)OCC1=C(C)C[C@H]([C@@H](C)[C@H]2CC[C@H]3[C@@H]4C[C@H]5O[C@]56[C@@H](O)C=CC(=O)[C@]6(C)[C@H]4CC[C@]23C)OC1=O
- IC50 [1]: 0.6 µM
- IC50 [2]: 1.6 µM
- IC50 [3]: 2.3 µM
- IC50 [4]: 0.4 µM
- IC50 [5]: 0.6 µM
- IC50 [6]: 3.7 µM
- IC50 [7]: 2.9 µM
- IC50 [8]: 0.9 µM

SMILES: COc1ccc(C(=O)OCC2=C(C)C[C@H]([C@@H](C)[C@H]3CC[C@H]4[C@@H]5C[C@H](Cl)[C@]6(O)[C@@H](OC(=O)c7ccc(OC)cc7)C=CC(=O)[C@]6(C)[C@H]5CC[C@]34C)OC2=O)cc1
- IC50 [1]: 3 µM
- IC50 [2]: 4.5 µM
- IC50 [3]: 24 µM
- IC50 [4]: 3 µM
- IC50 [5]: 3.7 µM
- IC50 [6]: > 40 µM
- IC50 [7]: 28.1 µM
- IC50 [8]: 11.2 µM

SMILES: CC1=C(CO)C(=O)O[C@@H]([C@@H](C)[C@H]2CC[C@H]3[C@@H]4C[C@H]5O[C@]56[C@@H](O)CC[C@@H](O)[C@]6(C)[C@H]4CC[C@]23C)C1
- IC50 [1]: > 40 µM
- IC50 [2]: > 40 µM
- IC50 [3]: > 40 µM
- IC50 [4]: > 40 µM
- IC50 [5]: > 40 µM
- IC50 [6]: > 40 µM
- IC50 [7]: > 40 µM
- IC50 [8]: > 40 µM

SMILES: C[C@@H]([C@H]1CC[C@H]2[C@@H]3C[C@H]4O[C@]45[C@@H](O)[C@H]4O[C@H]4C(=O)[C@]5(C)[C@H]3CC[C@]12C)[C@H]1C[C@@]2(C)O[C@@]2(CO)C(=O)O1
- IC50 [1]: > 40 µM
- IC50 [2]: > 40 µM
- IC50 [3]: > 40 µM
- IC50 [4]: > 40 µM
- IC50 [5]: > 40 µM
- IC50 [6]: > 40 µM
- IC50 [7]: > 40 µM
- IC50 [8]: > 40 µM

SMILES: CC(=O)OCC1=C(C)C[C@H]([C@@H](C)[C@H]2CC[C@H]3[C@@H]4C[C@H]5O[C@]56C(=O)C=CC(=O)[C@]6(C)[C@H]4CC[C@]23C)OC1=O
- IC50 [1]: 6.4 µM
- IC50 [2]: 6.8 µM
- IC50 [3]: 13.2 µM
- IC50 [4]: 6.4 µM
- IC50 [5]: 3.9 µM
- IC50 [6]: 16.2 µM
- IC50 [7]: 17.5 µM
- IC50 [8]: 16.3 µM

SMILES: CC1=C(CO[Si](C)(C)C(C)(C)C)C(=O)O[C@@H]([C@@H](C)[C@H]2CC[C@H]3[C@@H]4C[C@H](Cl)[C@]5(O)[C@@H](O)C=CC(=O)[C@]5(C)[C@H]4CC[C@]23C)C1
- IC50 [1]: 3.1 µM
- IC50 [2]: 3.1 µM
- IC50 [3]: 4.1 µM
- IC50 [4]: 2.5 µM
- IC50 [5]: 3.5 µM
- IC50 [6]: 3.8 µM
- IC50 [7]: 3.4 µM
- IC50 [8]: 3.1 µM

SMILES: CC1=C(C=O)C(=O)O[C@@H]([C@@H](C)[C@H]2CC[C@H]3[C@@H]4C[C@H]5O[C@]56C(=O)C=CC(=O)[C@]6(C)[C@H]4CC[C@]23C)C1
- IC50 [1]: 13.4 µM
- IC50 [2]: 11 µM
- IC50 [3]: 16.9 µM
- IC50 [4]: 8.9 µM
- IC50 [5]: 12.8 µM
- IC50 [6]: 16.1 µM
- IC50 [7]: 18.5 µM
- IC50 [8]: 12.3 µM

SMILES: CC(=O)OCC1=C(C)C[C@H]([C@@H](C)[C@H]2CC[C@H]3[C@@H]4C[C@H]5O[C@]56[C@@H](OC(=O)c5ccc(Br)cc5)C=CC(=O)[C@]6(C)[C@H]4CC[C@]23C)OC1=O
- IC50 [1]: 0.9 µM
- IC50 [2]: 0.6 µM
- IC50 [3]: 2.1 µM
- IC50 [4]: 0.4 µM
- IC50 [5]: 0.5 µM
- IC50 [6]: 1.7 µM
- IC50 [7]: 2.1 µM
- IC50 [8]: 1.2 µM

SMILES: CC1=C(CO)C(=O)O[C@@H]([C@@H](C)[C@H]2CC[C@H]3[C@@H]4C[C@@H]5ON[C@@H]6CC(=O)[C@](C)([C@H]4CC[C@]23C)[C@@]5(O)[C@H]6O)C1
- IC50 [1]: > 40 µM
- IC50 [2]: > 40 µM
- IC50 [3]: > 40 µM
- IC50 [4]: > 40 µM
- IC50 [5]: > 40 µM
- IC50 [6]: > 40 µM
- IC50 [7]: > 40 µM
- IC50 [8]: > 40 µM

SMILES: CC1=C(COC(=O)c2ccoc2)C(=O)O[C@@H]([C@@H](C)[C@H]2CC[C@H]3[C@@H]4C[C@H](Cl)[C@]5(O)[C@@H](O)C=CC(=O)[C@]5(C)[C@H]4CC[C@]23C)C1
- IC50 [1]: 31.2 µM
- IC50 [2]: 28.6 µM
- IC50 [3]: > 40 µM
- IC50 [4]: 33.5 µM
- IC50 [5]: 30.6 µM
- IC50 [6]: > 40 µM
- IC50 [7]: > 40 µM
- IC50 [8]: > 40 µM

SMILES: CC1=C(CO)C(=O)O[C@@H]([C@@H](C)[C@H]2CC[C@H]3[C@@H]4C[C@H]5O[C@]56[C@@H](O)[C@H]5O[C@H]5C(=O)[C@]6(C)[C@H]4CC[C@]23C)C1
- IC50 [1]: > 40 µM
- IC50 [2]: > 40 µM
- IC50 [3]: > 40 µM
- IC50 [4]: > 40 µM
- IC50 [5]: > 40 µM
- IC50 [6]: > 40 µM
- IC50 [7]: > 40 µM
- IC50 [8]: > 40 µM

SMILES: CCCCN[C@H]1CC(=O)[C@]2(C)[C@H]3CC[C@]4(C)[C@@H]([C@H](C)[C@H]5CC(C)=C(CO)C(=O)O5)CC[C@H]4[C@@H]3C[C@H]3O[C@]32[C@H]1O
- IC50 [1]: 20.6 µM
- IC50 [2]: 6.9 µM
- IC50 [3]: 21.8 µM
- IC50 [4]: 7.6 µM
- IC50 [5]: 13.6 µM
- IC50 [6]: 9.6 µM
- IC50 [7]: 8.4 µM
- IC50 [8]: 9.6 µM

SMILES: CC1=C(COC(=O)c2ccc(Br)cc2)C(=O)O[C@@H]([C@@H](C)[C@H]2CC[C@H]3[C@@H]4C[C@H]5O[C@]56[C@@H](O)C=CC(=O)[C@]6(C)[C@H]4CC[C@]23C)C1
- IC50 [1]: 0.7 µM
- IC50 [2]: 2.3 µM
- IC50 [3]: 2.9 µM
- IC50 [4]: 1 µM
- IC50 [5]: 0.5 µM
- IC50 [6]: 4.2 µM
- IC50 [7]: 3.8 µM
- IC50 [8]: 1.2 µM

SMILES: COC(=O)CCC(=O)OCC1=C(C)C[C@H]([C@@H](C)[C@H]2CC[C@H]3[C@@H]4C[C@H](Cl)[C@]5(O)[C@@H](OC(=O)CCC(=O)OC)C=CC(=O)[C@]5(C)[C@H]4CC[C@]23C)OC1=O
- IC50 [1]: 4.1 µM
- IC50 [2]: 4.8 µM
- IC50 [3]: 7.8 µM
- IC50 [4]: 5.5 µM
- IC50 [5]: 3.9 µM
- IC50 [6]: 8.9 µM
- IC50 [7]: 8 µM
- IC50 [8]: 14 µM

SMILES: CC1=C(C)C(=O)O[C@@H]([C@@H](C)[C@H]2CC[C@H]3[C@@H]4C[C@H]5O[C@]56[C@@H](O)CCC(=O)[C@]6(C)[C@H]4CC[C@]23C)C1
- IC50 [1]: > 40 µM
- IC50 [2]: > 40 µM
- IC50 [3]: > 40 µM
- IC50 [4]: > 40 µM
- IC50 [5]: > 40 µM
- IC50 [6]: > 40 µM
- IC50 [7]: > 40 µM
- IC50 [8]: > 40 µM

SMILES: CCCCCCCC(=O)OCC1=C(C)C[C@H]([C@@H](C)[C@H]2CC[C@H]3[C@@H]4C[C@H](Cl)[C@]5(O)[C@@H](OC(=O)CCCCCCC)C=CC(=O)[C@]5(C)[C@H]4CC[C@]23C)OC1=O
- IC50 [1]: > 40 µM
- IC50 [2]: > 40 µM
- IC50 [3]: > 40 µM
- IC50 [4]: > 40 µM
- IC50 [5]: > 40 µM
- IC50 [6]: > 40 µM
- IC50 [7]: > 40 µM
- IC50 [8]: > 40 µM

SMILES: CC1=C(CO)C(=O)O[C@@H]([C@@H](C)[C@H]2CC[C@H]3[C@@H]4C[C@H]5O[C@]56[C@@H](O)[C@@H](NCc5ccccc5)CC(=O)[C@]6(C)[C@H]4CC[C@]23C)C1
- IC50 [1]: 7.8 µM
- IC50 [2]: 6.6 µM
- IC50 [3]: 10 µM
- IC50 [4]: 7.2 µM
- IC50 [5]: 13.1 µM
- IC50 [6]: 13.8 µM
- IC50 [7]: 11 µM
- IC50 [8]: 8.5 µM

SMILES: C=CCOC(=O)/C(CO)=C(C)\C=C\[C@@H](C)[C@H]1CC[C@H]2[C@@H]3C[C@H]4O[C@]45[C@@H](O)C=CC(=O)[C@]5(C)[C@H]3CC[C@]12C
- IC50 [1]: 4.7 µM
- IC50 [2]: 2.4 µM
- IC50 [3]: 7.9 µM
- IC50 [4]: 2.4 µM
- IC50 [5]: 2.2 µM
- IC50 [6]: 8.3 µM
- IC50 [7]: 7.1 µM
- IC50 [8]: 4.2 µM

SMILES: CC1=C(COC(=O)c2cccc3ccccc23)C(=O)O[C@@H]([C@@H](C)[C@H]2CC[C@H]3[C@@H]4C[C@H]5O[C@]56[C@@H](OC(=O)c5cccc7ccccc57)C=CC(=O)[C@]6(C)[C@H]4CC[C@]23C)C1
- IC50 [1]: > 40 µM
- IC50 [2]: > 40 µM
- IC50 [3]: > 40 µM
- IC50 [4]: > 40 µM
- IC50 [5]: > 40 µM
- IC50 [6]: > 40 µM
- IC50 [7]: > 40 µM
- IC50 [8]: > 40 µM

SMILES: C=C1C(=O)O[C@@H]([C@@H](C)[C@H]2CC[C@H]3[C@@H]4C[C@H]5O[C@]56[C@@H](O)[C@@H](OC)CC(=O)[C@]6(C)[C@H]4CC[C@]23C)C=C1C
- IC50 [1]: > 40 µM
- IC50 [2]: 23 µM
- IC50 [3]: > 40 µM
- IC50 [4]: > 40 µM
- IC50 [5]: > 40 µM
- IC50 [6]: > 40 µM
- IC50 [7]: > 40 µM
- IC50 [8]: > 40 µM
